In patent publication US20110020470A1, “METHODS AND COMPOSITIONS FOR TREATING CANCER” (SOUND PHARMACEUTICALS INCORPORATED, priority 2005, published 2011):

Assays:
[1] = tested on: NuTu-19 ovarian cancer cells; experiment: MTS cell viability assay, cultured NuTu-19 cells; format: cell-based, rat; conditions: for effect on the ability of cisplatin to kill NuTu-19 cells: with cisplatin 43 μM, FIG. 2 and 3
Protocol: NuTu-19 cells were plated at a density of 3,000 cells per well in 96 well culture dishes, and incubated at 37° C., in the presence of 5% carbon dioxide, for 24 hours. […] The NuTu-19 cells were then rinsed with media and incubated in the presence of cisplatin for an additional 24 hours.
The NuTu-19 cells were then rinsed twice with phosphate buffered saline (PBS), then MTS assays were performed to measure the number of living cells. MTS is an abbreviation for (3-(4,5-dimethylthiazol-2-yl)-5-(3-carboxymethoxyphenyl)-2-(4-sulfophenyl)-2H-tetrazolium. The MTS assay is a colorimetric method for determining the number of viable cells based upon physiologic catabolism of MTS to a formazan product that is soluble in tissue culture medium. The absorbance of the formazan product at 490 nm can be measured directly from a 96 well plate using a plate reader. Increased absorbance at 490 nm correlates with increased production of formazan in a well. This is typically due to more viable cells present in a well.

[2] = tested on: mammalian ovarian cancer cell lines; experiment: MTT cytotoxicity study, statements over all ovarian cancer cell lines tested; format: cell-based
Protocol: Each of the cell lines listed above was plated at a density of 3,500 cells per well in 96 well plates and incubated at 37° C. for 24 hours. […] After the one hour incubation, 50 μl of cisplatin and paclitaxel were added to the cell lines at the various concentrations shown in TABLE 2 to achieve an IC50 in the absence of other drugs. The cells were then incubated at 37° C. in 5% CO2 in the presence of the cisplatin and paclitaxel for an additional 67-72 hours.
After the 67-72 hour incubation period, 10 μl of MTT (3-(4,5-dimethlythiazol-2-yl)-2,5-diphenyl […] bromide) working solution was added to each well (based on the instructions in the Chemicon MTT Cell Growth Kit Cat #CT01) and the cells were incubated for 4 hours. 100 μl of isopropanol/HCl solution was then added to each well and absorbance at 570 nm was measured.

[3] = tested on: rSPI-tu epithelial ovarian cancer cells; experiment: MTT cytotoxicity study with ebselen and allopurinol; format: cell-based, rat; conditions: each drug 100 μM, no cisplatin/paclitaxel
Protocol: Each of the cell lines listed above was plated at a density of 3,500 cells per well in 96 well plates and incubated at 37° C. for 24 hours. […] After the one hour incubation, 50 μl of cisplatin and paclitaxel were added to the cell lines at the various concentrations shown in TABLE 2 to achieve an IC50 in the absence of other drugs. […]
[…], 10 μl of MTT (3-(4,5-dimethlythiazol-2-yl)-2,5-diphenyl […] bromide) working solution was added to each well (based on the instructions in the Chemicon MTT Cell Growth Kit Cat #CT01) and the cells were incubated for 4 hours. 100 μl of isopropanol/HCl solution was then added to each well and absorbance at 570 nm was measured.

[4] = tested on: TOV-112D adenocarcinoma/endometroid carcinoma ovarian cancer cells; experiment: as above; format: cell-based, human; conditions: each drug 100 μM, no cisplatin/paclitaxel
Protocol: (§1) Each of the cell lines listed above was plated at a density of 3,500 cells per well in 96 well plates and incubated at 37° C. for 24 hours. […] After the one hour incubation, 50 μl of cisplatin and paclitaxel were added to the cell lines at the various concentrations shown in TABLE 2 to achieve an IC50 in the absence of other drugs. The cells were then incubated at 37° C. in 5% CO2 in the presence of the cisplatin and paclitaxel for an additional 67-72 hours. Control wells were included as follows: no drug, ebselen, allopurinol, ebselen and allopurinol, and cisplatin/paclitaxel.
(§2) After the 67-72 hour incubation period, 10 μl of MTT (3-(4,5-dimethlythiazol-2-yl)-2,5-diphenyl […] bromide) working solution was added to each well (based on the instructions in the Chemicon MTT Cell Growth Kit Cat #CT01) and the cells were incubated for 4 hours. 100 μl of isopropanol/HCl solution was then added to each well and absorbance at 570 nm was measured. The results of the MTT assay for the different ovarian cancer cell lines tested are shown in FIGS. 9A-16C and are summarized below in TABLE 3.

[5] = tested on: CAOV-3 adenocarcinoma ovarian cancer cells; experiment: as above; format: cell-based, human; conditions: each drug 100 μM, no cisplatin/paclitaxel
Protocol: as §1, §2

[6] = tested on: SKOV-3 adenocarcinoma ovarian cancer cells; experiment: as above; format: cell-based, human; conditions: each drug 100 μM, no cisplatin/paclitaxel
Protocol: as §1, §2

[7] = tested on: ES-2 clear cell carcinoma ovarian cancer cells; experiment: as above; format: cell-based, human; conditions: each drug 100 μM, no cisplatin/paclitaxel
Protocol: as §1, §2

[8] = tested on: OVCAR-3 adenocarcinoma ovarian cancer cells; experiment: as above; format: cell-based, human; conditions: each drug 100 μM, no cisplatin/paclitaxel
Protocol: as §1, §2

[9] = tested on: OV-90 papillary serous adenocarcinoma ovarian cancer cells; experiment: as above; format: cell-based, human; conditions: each drug 100 μM, no cisplatin/paclitaxel
Protocol: as §1, §2

[10] = patients receiving cisplatin; Helson 1978; cited from earlier work
NuTu-19 tumors = experiment: NuTu-19 ovarian cancer tumor model in F-344 rats, tumor response; format: in vivo, rat
Protocol: An ovarian cancer tumor model was established in rats by injection of 10^7 NuTu-19 cells into the peritoneal cavity of 8-10 week old female F-344 rats. Rats with injected NuTu-19 cells were allowed to develop tumor burden for two weeks prior to cisplatin treatment. A control series of 10 rats was evaluated separately for the development of ovarian tumor burden under the described conditions. All rats in the control series were sacrificed 5 weeks after NuTu-19 tumor cell injection and tumor burden was evaluated.
The absence of ascites, but presence of more than 5 visible tumor nodules (each >0.5 mm) in the peritoneal cavity was considered to be an indication that the cancer partially responded to the treatment. The absence of ascites and presence of fewer than 5 visible tumor nodules (each >0.5 mm) was considered to be an indication that the cancer fully responded to the treatment.

[11] = tested on: rats treated with cisplatin; experiment: Auditory Evoked Brainstem Response (ABR), permanent threshold shift after cisplatin; format: in vivo, rat; conditions: 8, 16, 24, 32 kHz; ebselen 16 mg/kg i.p. plus cisplatin 16 mg/kg i.p., versus cisplatin without ebselen; 72 hours; FIG. 6
Protocol: (§3) Auditory Evoked Brainstem Response (ABR) was used to assess hearing in rats before and after exposure to cisplatin and chemoprotectants. Ebselen or DMSO (control vehicle) were introduced intraperitoneally into rats one hour before intraperitoneal administration of cisplatin at a dosage of 16 mg/kg body weight. Seventy-two hours after delivery of cisplatin, ABR data were collected, animals were sacrificed, cochleae were collected, dissected, stained with FITC-phalloidin (to detect F-Actin in hair cells), and DAPI (to detect nuclear DNA).
Ten cochlea were tested per treatment. The PTS is a measure of hearing loss.
Four cochlea were tested per treatment.

inner ear hair cells = experiment: Cochlea explant culture, inner ear hair cell count (calbindin/DAPI); format: cell-based, mouse; conditions: FIG. 5
Protocol: Three cochlea per treatment, obtained from P3-4 mouse pups, were cultured in 0.4 micrometer MilliCell-CM inserts with NeuroBasal A medium plus B27 supplement. After 24 hours in culture, ebselen was added to the medium, incubated for ten minutes, and then cisplatin was added to the medium at a final concentration of 43 μM. A first control treatment included 43 μM cisplatin. A second control treatment included 47 μM ebselen without the addition of cisplatin. All cultures were incubated for 24 hours at 37° C. in 5% carbon dioxide.
The explants were then harvested, fixed, and stained with calbindin (which detects hair cells) and DAPI (4′,6-Diamindino-2-phenylindole; for detection of nuclear DNA).

[12] = treatment of acute ischemic stroke; cited from earlier work
[13] = tested on: cochlear outer hair cells; experiment: Count of outer auditory hair cells in excised cochleae after cisplatin; format: in vivo, rat; conditions: cisplatin and ebselen versus cisplatin, saline and DMSO; FIG. 8A, 8B
Protocol: as §3
Additionally, cochleae were excised from rats treated with the combination of cisplatin and ebselen as described in this Example. Cochleae were also excised from rats treated with cisplatin and saline and DMSO (control). The number of outer auditory hair cells in the excised cochlea were counted at intervals of 0.1 mm along the cochlea. Representative results from a control rat and a treated rat are shown in FIG. 8A and FIG. 8B, respectively.

[14] = tested on: TOV-21G adenocarcinoma/clear cell carcinoma ovarian cancer cells; experiment: MTT cytotoxicity study with ebselen and allopurinol; format: cell-based, human; conditions: each drug 100 μM, no cisplatin/paclitaxel
Protocol: as §1, §2

non-cancer cell line = conditions: Baldew et al. 1992; cited from earlier work
[15] = all cell lines tested, concentration range from 20 μM to 100 μM

Oc1ncnc2[nH]ncc12 [allopurinol]
effect on the ability of cisplatin to kill NuTu-19 cells [1]: does not inhibit the ability of cisplatin to kill NuTu-19 ovarian cancer tumor cells | cytotoxicity on the ovarian cancer cell lines [2, 15]: did not have a toxic effect | Percent live cells after 96 hour drug treatment [3]: ~80% | Percent live cells after 96 hour drug treatment [4]: ~100% | Percent live cells after 96 hour drug treatment [5]: ~80% | Percent live cells after 96 hour drug treatment [6]: ~90% | Percent live cells after 96 hour drug treatment [7]: ~90% | Percent live cells after 96 hour drug treatment [8]: ~100% | Percent live cells after 96 hour drug treatment [9]: ~100%

N.N.[Cl][Pt][Cl] [cisplatin, cis-diaminedichloroplatinum]
killing of cultured NuTu-19 ovarian cancer cells ([1]; incubation for 24 hours in the presence of cisplatin, FIG. 1): killed | patients who experience significant hearing loss [10]: up to 90% | Tumor Response % Complete (NuTu-19 tumors; rats that showed no sign of tumor burden): 57% | Tumor Response % Partial (NuTu-19 tumors; rats that showed some evidence of tumor burden): 43% | Tumor Response % No (NuTu-19 tumors; rats with tumors not responsive to cisplatin treatment): 0%

O=c1c2ccccc2[se]n1-c1ccccc1 [ebselen, 2-phenyl-1,2-benzoisoselenazol-3(2H)-one]
permanent threshold shift (PTS) in hearing [11]: PTS is less | effect on the ability of cisplatin to kill NuTu-19 cells [1]: does not inhibit the ability of cisplatin to kill NuTu-19 ovarian cancer tumor cells | effect on the chemotherapeutic activity of cisplatin and paclitaxel in multi-drug chemotherapy resistant cell lines ([2]; ES-2, SKOV-3 and OVCAR-3): enhanced the chemotherapeutic activity of cisplatin and paclitaxel | cytotoxicity on the ovarian cancer cell lines [2, 15]: induced dose-dependant cytotoxicity | effect on the chemotherapeutic effect of cisplatin plus paclitaxel [2, 15]: enhances the chemotherapeutic effect of cisplatin plus paclitaxel | protection of inner ear hair cells from damage by cisplatin (inner ear hair cells; 47 μM ebselen plus 43 μM cisplatin, 24 hours, in vitro): protects inner ear hair cells from damage by cisplatin | cytotoxic effect on cochlear inner ear cells (inner ear hair cells; ebselen 47 μM without cisplatin): does not appear to have a cytotoxic effect | Percent live cells after 96 hour drug treatment [3]: ~20% | adverse events in human clinical testing [12]: no adverse events were identified | percentage of outer hair cells missing in cochleae [13]: less | Percent live cells after 96 hour drug treatment [4]: ~18% | Percent live cells after 96 hour drug treatment [5]: ~0% | Percent live cells after 96 hour drug treatment [6]: ~40% | Percent live cells after 96 hour drug treatment [7]: ~20% | Percent live cells after 96 hour drug treatment [8]: ~20% | Percent live cells after 96 hour drug treatment [9]: ~40% | Percent live cells after 96 hour drug treatment [14]: ~18% | toxicity in a non-cancer cell line (non-cancer cell line): non-toxic
